Data taken from a melting point compilation (Tetko et al.).

| Structure (SMILES) | melting point |
| --- | --- |
| O=C(CCCl)N1CCN(c2ncccn2)CC1 | 139 to 141 °C |
| Cn1c(S)nnc1N1CCOCC1 | 194 to 196 °C |
| CCc1cc2c(=O)[nH]cnc2s1 | 183 to 185 °C |
| CC=Cc1ccc(OCC(=O)OC)c(OC)c1 | 68 to 70 °C |
| FC(F)(F)c1cc[nH]n1 | 45 to 47 °C |
| Cc1cc(S(=O)(=O)Cl)sc1C(=O)O | 194 to 196 °C |
| O=[N+]([O-])c1sc(Cl)nc1Cl | 38 to 40 °C |
| Cc1cccc(-n2nc(C(=O)O)cc2-c2ccc(-c3ccccc3)cc2)c1 | 215 to 217 °C |
| CCOC(C)c1ncc(C(=O)O)s1 (stereo not given) | 112 to 114 °C |
| NNC(=O)c1cc2sccc2cn1 | 204 to 206 °C |
| COc1ccc(-c2cc(N)ccc2OC(F)F)cc1 | 131 to 135 °C |
| Cc1cc(C(C#N)c2ccc(Cl)cc2)c(Cl)cc1N (stereo not given) | 147 to 153 °C |
| OC1CCCc2c[nH]nc21 (stereo not given) | 107 to 109 °C |
| Cn1c(S)nnc1C1CC1 | 180 to 182 °C |
| Cc1ccc(Nc2nnc(S)s2)cc1Cl | 210 to 212 °C |
| COc1c(Cl)cc(Br)cc1S(N)(=O)=O | 214 to 216 °C |
| CSc1nn(C)c(N)c1C(N)=O | 173 to 175 °C |
| CCOC(=O)c1c(C2CCCCC2)csc1N | 109 to 111 °C |
| c1nnc(C2CCNCC2)[nH]1 | 208 to 210 °C |
| CCc1sc(C(=O)O)cc1C | 98 to 100 °C |
| ClCc1cc2c(cc1Br)OCO2 | 62 to 66 °C |
| O=C(NC1CCNCC1)C1CCOCC1 | 156 to 158 °C |
| COc1ccc(S(N)(=O)=O)cc1[N+](=O)[O-] | 139 to 141 °C |
| Cn1cc(C=NNC(N)=S)cn1 | 189 to 191 °C |
| Cc1nc2sc3c(c2c(=O)n1N)CCCCC3 | 199 to 201 °C |
| CCN(CC)S(=O)(=O)c1ccc(N)c(N)c1 | 124 to 126 °C |

| Structure (SMILES) | melting point |
| --- | --- |
| NC(=O)COc1ccc(/C=C/C(=O)O)cc1 | 295 to 297 °C |
| COc1ccc(Br)cc1CCC(=O)O | 116 to 118 °C |
| N#CCc1ccc(Oc2ccc(C(=O)O)cc2)cc1 | 183 to 185 °C |
| CC(C)CC1(C)NC(=O)NC1=O (stereo not given) | 145 to 147 °C |
| Cc1c(CCC(=O)O)cnn1C | 139 to 141 °C |
| CN(C)C(C(=O)O)c1cc(Cl)cc(Cl)c1 (stereo not given) | 170 to 172 °C |
| O=C(O)C1CCN(C(=O)c2ccc(C(F)(F)F)cc2)CC1 | 162 to 164 °C |
| CCOCCOc1c(N)cccc1Cl | 65 to 67 °C |
| CCOC(=O)c1cnn2c3c(cnc12)CCOC3=O | 246 to 248 °C |
| Cc1ccc(NC(=O)NC(=O)CCl)c(C)c1 | 159 to 161 °C |
| COC(=O)c1ccc(Br)s1 | 60 to 62 °C |
| CC1(C)CC(=O)C=C(N)C1 | 167 to 170 °C |
| O=Cc1cc(O)cc(Br)c1O | 145 to 147 °C |
| CCn1c(N)nc2cc(Cl)ccc21 | 169 to 171 °C |
| O=C(O)Cc1ccc(C(F)F)cc1 | 76 to 78 °C |
| Cn1cc(N)cc(Br)c1=O | 159 to 161 °C |
| CC(C)(C)c1ccc(C(=O)NC(=O)CCl)cc1 | 120 to 122 °C |
| Cc1cc(C(=O)O)c(N)c([N+](=O)[O-])c1 | 249 to 251 °C |
| O=C(O)COc1ccc(C(=O)c2ccc(Cl)cc2)cc1 | 185 to 187 °C |
| COc1ccc(NS(=O)(=O)c2ccc(C)c(N)c2)cc1 | 127 to 129 °C |
| CCCCCc1sc(N)c(C(N)=O)c1C | 129 to 131 °C |
| CCOC(=O)c1[nH]c(C)c(C(=O)O)c1C | 103 to 105 °C |
| Cc1cc(Cl)n2ncnc2c1 | 93 to 95 °C |
| Cc1cc(C)c(S(=O)(=O)NCCC(=O)O)c(C)c1 | 118 to 120 °C |
| O=C(O)CC1CCOCC1 | 59 to 61 °C |
| CCNCC(=O)Nc1c(C)cccc1C | 45 to 47 °C |

| Structure (SMILES) | melting point |
| --- | --- |
| ClCc1cnoc1-c1ccc(Cl)cc1 | 78 to 80 °C |
| O=C(O)c1ccc(CN2CCC(CO)CC2)cc1 | 219 to 221 °C |
| CC(C)(C)OC(=O)CC(C)(C#N)C(=O)O (stereo not given) | 89 to 91 °C |
| O=C(O)CCc1nc2cc(Cl)ccc2s1 | 145 to 147 °C |
| Cc1cc(C(=O)O)c2[nH]ncc2c1 | 286 to 288 °C |
| CC(C)(C)OC(=O)NCC1CCCCS1(=O)=O (stereo not given) | 97 to 99 °C |
| CC(N)c1ccc(OCc2ccc(F)cc2)cc1 (stereo not given) | 52 to 54 °C |
| Cc1ccc(-c2nc(C)c(C(C)O)s2)cc1 (stereo not given) | 111 to 113 °C |
| Nn1c(SCC(=O)O)nnc1C1CCCCC1 | 159 to 161 °C |
| CC(C)c1nn(-c2ccc(Br)cc2)cc1C=O | 99 to 101 °C |
| CC(C)(C)c1ccc(Oc2ccc(C=O)cc2[N+](=O)[O-])cc1 | 156 to 158 °C |
| Cc1nc(C)c2c(C)c(C(=O)O)sc2n1 | 347 to 349 °C |
| CCOC(=O)c1nnc(N)s1 | 197 to 199 °C |
| Cc1csc(NC(=O)C2CCCNC2)n1 (stereo not given) | 164 to 166 °C |
| CCCC(=O)Nc1cccc(CN)c1 | 54 to 56 °C |
| COc1ccc(C(=O)Oc2ccc(C=O)cc2OC)cc1 | 95 to 98 °C |
| CC(C)OC(=O)c1ccnc(O)c1 | 145 to 147 °C |
| CCc1noc(-c2ccc(N)c(Cl)c2)n1 | 89 to 91 °C |
| Nn1cncn1 | 64 to 66 °C |
| Cc1c(C(=O)O)cnn1CC(C)C | 109 to 111 °C |
| Nc1ccnn1Cc1ccc(Br)cc1 | 97 to 99 °C |
| Cn1cc(C(=O)O)c(C(F)(F)F)c1 | 205 to 207 °C |
| O=C1C(Br)CCN1C1CCOCC1 (stereo not given) | 67 to 69 °C |
| Nc1c(Cl)cc(S(=O)(=O)Cl)cc1Cl | 134 to 136 °C |

More lines, now with the values ahead:

| melting point | Structure (SMILES) |
| --- | --- |
| 215 to 217 °C | CN1C(=O)CCC(C(N)=O)C1c1cccc(Cl)c1 (stereo not given) |
| 98 to 100 °C | O=c1[nH]c(CCl)nc2c1oc1ccccc12 |
| 96 to 98 °C | O=C1OC(=O)c2cc(Cl)ccc21 |
| 228 to 230 °C | COC(=O)c1ccc2nc(N)oc2c1 |
| 194 to 206 °C | c1ccc2c(c1)nc1n2CCN1 |
| 146 to 148 °C | O=CN1CCc2cc(C(=O)CCl)ccc21 |
| 71 to 73 °C | O=C(O)CC#Cc1ccccc1 |
| 73 to 75 °C | CC(NC(=O)C(Br)C(C)C)c1ccccc1 (stereo not given) |
| 85 to 87 °C | Nc1ccccc1C(=O)Nc1ccc2c(c1)OCO2 |
| 199 to 201 °C | CN1C(=O)c2cccc(N)c2C1=O |
| 324 to 326 °C | O=C1CNC(=O)c2ccccc2N1 |
| 173 to 175 °C | CCCn1c(=O)n(CC(=O)O)c2ccccc21 |
| 148 to 150 °C | NC(CNS(=O)(=O)c1ccc(F)cc1)=NO |
| 229 to 231 °C | CCCNC(=O)c1cccc(C(=O)O)c1 |
| 165 to 167 °C | CC(C)(NC(=O)Nc1ccccc1)C(=O)O |
| 182 to 184 °C | N#Cc1cccc(C2(C(=O)O)CC2)c1 |
| 108 to 110 °C | O=C(O)CCCc1nc(-c2ccc(Cl)cc2)no1 |
| 152 to 154 °C | N#Cc1cccnc1Oc1ccc(N)cc1 |
| 255 to 257 °C | O=C(O)C1CCCN(C(=O)c2cccc3ccccc23)C1 (stereo not given) |
| 112 to 114 °C | COc1cc(C(=O)Cc2nc3ccccc3n2C(F)F)cc(OC)c1OC |
| 129 to 131 °C | O=C(O)c1cccc(Nc2ccccc2)c1 |
| 81 to 83 °C | O=[N+]([O-])c1cccc(Cl)c1S(=O)(=O)Cl |
| 229 to 231 °C | NC(C(=O)O)c1ccccc1F (stereo not given) |

| melting point | Structure (SMILES) |
| --- | --- |
| 144 to 146 °C | O=C(CN1C(=O)CCC1=O)c1ccccc1 |
| 75 to 77 °C | Clc1nccc2ccn(Cc3ccccc3)c12 |
| 168 to 170 °C | Fc1ccc(CNc2nnc(S)s2)cc1 |
| 74 to 76 °C | Cc1ccc(NC(=O)CCl)cc1S(=O)(=O)N1CCCCCC1 |
| 147 to 149 °C | O=C(O)C1CC2CCCCC2N1C(=O)c1ccc(F)cc1 (stereo not given) |
| 207 to 209 °C | Oc1ccc2c(O)ccnc2c1 |
| 134 to 136 °C | Cc1cc(S(=O)(=O)Cl)ccc1-n1cnnn1 |
| 169 to 171 °C | Nc1nnc(Cc2ccc(F)cc2)o1 |
| 54 to 56 °C | O=C(CCl)NCC1(c2ccccc2)CCCCC1 |
| 185 to 187 °C | CN(C)c1cc2ccccc2c(=O)[nH]1 |
| 281 to 283 °C | O=C1CCNc2ccc(C(=O)O)cc2N1 |
| 214 to 216 °C | CC1(c2ccccc2F)NC(=O)NC1=O (stereo not given) |
| 99 to 101 °C | N#CCc1ccccc1CC(=O)O |
| 147 to 149 °C | O=C1CCNc2ccc(F)cc2N1 |
| 184 to 186 °C | O=S(=O)(Cl)c1ccc(N2CCCS2(=O)=O)cc1 |
| 253 to 255 °C | O=C(O)c1n[nH]c2ccc([N+](=O)[O-])cc12 |
| 154 to 156 °C | NC(=O)c1cccc([N+](=O)[O-])c1O |
| 47 to 49 °C | Cc1ccccc1C(C)CC(=O)O (stereo not given) |
| 45 to 47 °C | N#C/C=C/c1ccc(Cl)cc1 |
| 72 to 74 °C | COC(=O)N1CCc2ccccc21 |
| 169 to 171 °C | CC1CNC(=O)N1c1cccc(N)c1 (stereo not given) |
| 124 to 126 °C | O=C(O)CC(NC(=O)OCc1ccccc1)c1ccccc1 (stereo not given) |
| 150 to 152 °C | OCc1nc2ccccc2n1C(F)F |

| melting point | Structure (SMILES) |
| --- | --- |
| 144 to 146 °C | Cc1c(Cl)cccc1-n1ccnc1SCC(=O)O |
| 210 to 212 °C | Cn1c(=O)c(Br)c(N)n(Cc2ccccc2)c1=O |
| 98 to 101 °C | Cc1cc2cc(F)ccc2[nH]1 |
| 138 to 140 °C | COc1cc(NC(C)=O)ccc1I |
| 177 to 179 °C | CN1C(=O)CNC1=O |
| 97 to 99 °C | Cc1ccc(C2CC2C(=O)O)cc1C (stereo not given) |
| 55 to 57 °C | Brc1ncc(-c2ccccc2)s1 |
| 173 to 175 °C | O=C(Nc1cccc(Cn2cccnc2=O)c1)OCC(F)(F)F |
| 63 to 65 °C | NCCCS(=O)(=O)Cc1ccccc1 |
| 127 to 129 °C | Nc1ccccc1NC(=O)N1CCCC1 |
| 153 to 155 °C | O=C(CCl)N1N=C(c2ccco2)CC1c1cccs1 (stereo not given) |
| 189 to 191 °C | COC(=O)c1nc2ccccc2[nH]1 |
| 143 to 145 °C | O=C(Nc1ccccc1)C1CCN(C(=O)CCl)CC1 |
| 139 to 141 °C | CCCCc1ccc(N2CC(C(=O)O)CC2=O)cc1 (stereo not given) |
| 141 to 143 °C | O=C(O)CN1C(=O)CCCc2ccccc21 |
| 134 to 136 °C | NC(=O)NCc1cccc(F)c1 |
| 96 to 98 °C | CCOc1ccccc1Oc1ccccc1C(=O)O |
| 150 to 152 °C | O=C(Nc1ccccn1)OCC(F)(F)F |
| 242 to 244 °C | Cn1c(=O)[nH]c2ccccc2c1=O |
| 139 to 141 °C | Nc1sc2c(c1C(=O)c1ccc(F)cc1)CCC2 |
| 291 to 293 °C | NC(=O)c1ccc(CSc2ncccc2C(=O)O)cc1 |
| 214 to 216 °C | Cc1ccc(-c2noc(N)n2)cc1 |
| 114 to 116 °C | CCc1ccc2c(c1)C(=O)C(=O)N2 |
